# From patent US20060121085A1, “Formulations for cell-schedule dependent anticancer agents” (priority 2003, published 2006)
# Like-named read-outs stand apart in the source and are kept apart here.
# Assays:
# mouse embryo fibroblasts = settings: cited from earlier work
# [1] = Dog; cited from earlier work
# [2] = Rabbit; cited from earlier work
# [3] = cited from earlier work
# [4] = cited from earlier work; remark: listed apart in the source
# [5] = mouse at 2.5 and 100 mg/kg (cleft palate, skeletal defects, limb deformities); cited from earlier work
# [6] = Rat; cited from earlier work
# [7] = system: subcutaneous Hey (Human Ovarian Cancer) tumors; settings: 100 mg/kg FUDR/Saline × 2 (1 & 14 days), i.p., 20 μL
# Protocol: In this study, SCID mice bearing established (˜0.5 cm diameter) SC ovarian (Hey) tumors were used in this study and were randomized to equalize the tumor volume prior to initiation of drug therapy. Doses of 50 and 100 mg/kg were administered intratumorally. Floxuridine in saline at 100 mg/kg was administered by intraperitoneal injection. ATRIGEL® alone was administered in a volume equal to the 100 mg/kg group.
# Mice were injected with 10×10^6 Hey (Human Ovarian Cancer) cells. When the average tumor diameter was approximately 0.5 cm, mice were divided into treatment groups such that the mean tumor volume in each group was equivalent and drug was administered. […] The volume of Floxuridine/polymer used was calculated assuming total release of drug from the polymer and a drug concentration of 0.10 mg/μL of polymer. […]
# • All SCID mice used for this study were screened for IgG production and those mice producing IgG (“leaky”) were eliminated from the study group. • Mice were injected with 10×10^6 Hey cells. • When tumors achieved approximately 0.5 cm diameter, drug treatments were initiated. […] All treatments consisted of two injections (Days 1 and 14). • Mice were monitored weekly for weight, tumor size and toxicity symptoms (survival, general health, fur condition, etc.) for at least 5 weeks and the efficacy was compared
# [8] = Mouse; cited from earlier work
smiles,measurement,setting,value
"O=c1[nH]c(=O)n([C@H]2C[C@H](O)[C@@H](CO)O2)cc1F [FUDR, 5-fluorodeoxyuridine]",Mutagenicity,mouse embryo fibroblasts,Mutagenic
same,Lethal Intravenous Doses,[1],157 +/− 46
same,Lethal Intravenous Doses,[2],94 +/− 19.6
same,"Reproductive Toxicant, female",[3]; female rats at 25 or 50 mg/kg,reproductive toxicity
same,Teratogenicity,"[3]; rat at 75 and 150 mg/kg (cleft palate, skeletal defects, limb deformities)",Teratogenic
same,"Reproductive Toxicant, male",[3]; rats at 125-250 mg/kg i.p.,spermato-toxic
same,"MTD, cumulative dose",[4]; 50 mg/kg/day × 5 days,250 mg/kg
same,maximum tolerated dose (MTD),"[4]; normal (immunocompetent) mice, intraperitoneal injection, × 5 days",50 mg/kg/day
same,Teratogenicity,[5],Teratogenic
same,Lethal Intravenous Doses,[6],670 +/− 73
same,Mortality (%),[7],0%
same,Mortality (%),[7]; listed as free Floxuridine,all surviving
same,Lethal Intravenous Doses,[8],880 +/− 51
